Results from US20240158370A1, “CK1 alpha AND DUAL CK1 alpha / GSPT1 DEGRADING COMPOUNDS” (Innovo Therapeutics, Inc., priority 2022, published 2024).

Experiments:
Format in all cases: cell-based
CK1α = biological target: T1, CK1α (Homo sapiens, UniProt P48729+Q96SW2); experiment: HiBiT degradation assay, CK1α, Procedure A
T1 construct: CSNK1A1-HiBit KI HEK293(LgBit) Cells; host or cells: HEK293(LgBit) knock-in cells
In short: (§1)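 Luminescence from HiBiT lytic detection reports remaining tagged protein after cells sit six hours at 37° C with compound across ten concentrations (10 μM down to 0.005 μM, 0.1% DMSO). A 4-parameter curve fit gives DC50 and Ymin.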

Z-138 cells = experiment: Z-138 Proliferation Assay (Cell Titer-Glo); settings: 72 hours; for Ymin (%): % remaining (percent of DMSO control); for EC50: Homo sapiens, Cell Titer-Glo, 4-parameter curve fit
Protocol: Z-138 Proliferation Assay
Z-138 cells were cultured in IMDM Medium supplemented with 10% heat in-activated fetal bovine serum and 1% Penicillin-Streptomycin.
10 mM stocks of compound were made from fresh powder. DMSO was added to solid compound so that the final concentration was 10 mM. Compounds were vortexed and allowed to sit for 5 minutes to ensure complete solubility. Solvated compound was aliquoted into 1 ml Eppendorf tubes and stored in a −20° C. freezer.
Z-138 cells were maintained in culture using standard cell culturing techniques.
Cells were maintained at a density of 0.8×10^6 cells/ml.
Re-constitute cell titer-glo reagent according to manufacturer's protocol.
Z-138 cells were removed from culture and cell viability and density were determined using a CellDrop™ Automated Cell Counter with Tryphan blue stain according to manufacturer's protocols. Cells were centrifuged and resuspended using fresh media to a cell density of 0.1×10^6 cells/ml. […] 40 μl of cell suspension was added to the wells of a 384 well tissue culture plate (4,000 cells/well final). Upon completing the addition of the cells to the plate, the plates were centrifuged for 30 seconds at 300 rpms to help the cells settle and to bring air bubbles to the top of the wells. Air bubbles were popped using a pipette tip.
10-point dose response curves were performed using a D300e Digital Dispenser. The highest concentration of compound used in the assay was 10,000 nM. 1:2 dilutions were performed over a 10-point range with the final DMSO concentration being 0.1%. The cells were cultured for 72 hours in the presence of compound.
After 72 hours, the cell plates were removed from the incubator and allowed to equilibrate to room temperature (about 15 minutes). 20 μl of cell titer-glo reagent was added to each well of the 384 well plate. Incubated the plate for 30 minutes in the dark. After 30 minutes, ensured that there were no air bubbles in the plate (popped bubbles with pipette tip if necessary) and analyzed plate using a luminometer.
EC50 curves were generated using Prism Graph Pad. In brief, POCs (percent of control, compound/DMSO control×100) were plotted against the compound concentrations (log scale). EC50 curves were generated using a 4-parameter curve fit.

GSPT1 = GSPT1 (Homo sapiens, UniProt P15170+Q96SW2); experiment: HiBiT degradation assay, GSPT1, Procedure A; parameters: HiBit-GSPT1 KI HEK293(LgBit) Cells; host or cells: HEK293(LgBit) knock-in cells; settings: six hours incubation
In short: as §1

T1 sequence (P48729 whole entry): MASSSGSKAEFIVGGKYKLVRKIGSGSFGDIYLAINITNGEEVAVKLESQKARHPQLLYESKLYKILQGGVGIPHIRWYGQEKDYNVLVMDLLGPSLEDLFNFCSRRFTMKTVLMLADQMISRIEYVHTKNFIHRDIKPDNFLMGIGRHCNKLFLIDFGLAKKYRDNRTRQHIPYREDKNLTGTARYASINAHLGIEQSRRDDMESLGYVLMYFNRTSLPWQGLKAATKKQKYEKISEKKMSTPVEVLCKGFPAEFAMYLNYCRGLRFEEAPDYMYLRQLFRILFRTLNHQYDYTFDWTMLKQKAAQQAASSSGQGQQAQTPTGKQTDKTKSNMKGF
T1 sequence (Q96SW2 whole entry): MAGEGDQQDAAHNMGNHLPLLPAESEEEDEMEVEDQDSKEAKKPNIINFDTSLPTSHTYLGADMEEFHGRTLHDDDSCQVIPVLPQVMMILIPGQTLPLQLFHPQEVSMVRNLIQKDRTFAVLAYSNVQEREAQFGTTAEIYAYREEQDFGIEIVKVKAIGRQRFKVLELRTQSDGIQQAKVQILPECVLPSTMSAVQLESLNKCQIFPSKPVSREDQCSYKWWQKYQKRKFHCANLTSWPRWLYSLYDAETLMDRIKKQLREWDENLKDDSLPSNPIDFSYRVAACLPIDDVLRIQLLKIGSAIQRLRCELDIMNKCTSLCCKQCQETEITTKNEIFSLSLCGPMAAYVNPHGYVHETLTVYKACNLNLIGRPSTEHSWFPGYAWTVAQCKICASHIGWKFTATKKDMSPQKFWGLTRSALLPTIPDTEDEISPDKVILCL
T1 sequence (Q16531 whole entry partner): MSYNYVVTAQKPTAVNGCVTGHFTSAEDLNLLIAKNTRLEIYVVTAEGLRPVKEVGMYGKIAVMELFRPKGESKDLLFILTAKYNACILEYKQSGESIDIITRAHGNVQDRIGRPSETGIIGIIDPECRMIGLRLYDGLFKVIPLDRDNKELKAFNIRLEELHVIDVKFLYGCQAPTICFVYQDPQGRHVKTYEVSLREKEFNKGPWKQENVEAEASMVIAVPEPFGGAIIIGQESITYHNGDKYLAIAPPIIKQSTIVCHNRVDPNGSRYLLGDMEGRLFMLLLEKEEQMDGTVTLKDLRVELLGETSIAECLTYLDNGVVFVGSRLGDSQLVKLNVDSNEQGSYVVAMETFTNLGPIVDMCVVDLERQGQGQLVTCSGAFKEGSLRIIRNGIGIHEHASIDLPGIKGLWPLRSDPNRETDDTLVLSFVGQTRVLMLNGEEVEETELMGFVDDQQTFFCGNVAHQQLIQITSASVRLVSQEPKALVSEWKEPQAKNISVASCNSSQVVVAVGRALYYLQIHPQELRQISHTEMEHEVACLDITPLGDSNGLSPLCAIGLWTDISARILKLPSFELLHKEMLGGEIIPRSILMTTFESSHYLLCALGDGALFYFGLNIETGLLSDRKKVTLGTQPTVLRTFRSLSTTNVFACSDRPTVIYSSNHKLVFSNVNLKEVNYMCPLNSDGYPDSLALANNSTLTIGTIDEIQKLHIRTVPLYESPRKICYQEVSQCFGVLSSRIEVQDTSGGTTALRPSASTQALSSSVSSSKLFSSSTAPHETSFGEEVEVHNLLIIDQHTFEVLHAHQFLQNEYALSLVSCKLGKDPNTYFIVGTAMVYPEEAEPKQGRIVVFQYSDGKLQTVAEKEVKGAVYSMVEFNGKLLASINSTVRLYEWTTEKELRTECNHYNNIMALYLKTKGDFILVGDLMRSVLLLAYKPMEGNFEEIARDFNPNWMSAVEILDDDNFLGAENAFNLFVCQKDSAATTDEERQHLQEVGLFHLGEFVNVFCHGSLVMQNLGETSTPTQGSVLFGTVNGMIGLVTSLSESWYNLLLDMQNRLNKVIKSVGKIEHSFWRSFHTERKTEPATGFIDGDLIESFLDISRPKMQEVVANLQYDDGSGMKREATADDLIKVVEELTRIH
GSPT1, sequence (P15170 whole entry): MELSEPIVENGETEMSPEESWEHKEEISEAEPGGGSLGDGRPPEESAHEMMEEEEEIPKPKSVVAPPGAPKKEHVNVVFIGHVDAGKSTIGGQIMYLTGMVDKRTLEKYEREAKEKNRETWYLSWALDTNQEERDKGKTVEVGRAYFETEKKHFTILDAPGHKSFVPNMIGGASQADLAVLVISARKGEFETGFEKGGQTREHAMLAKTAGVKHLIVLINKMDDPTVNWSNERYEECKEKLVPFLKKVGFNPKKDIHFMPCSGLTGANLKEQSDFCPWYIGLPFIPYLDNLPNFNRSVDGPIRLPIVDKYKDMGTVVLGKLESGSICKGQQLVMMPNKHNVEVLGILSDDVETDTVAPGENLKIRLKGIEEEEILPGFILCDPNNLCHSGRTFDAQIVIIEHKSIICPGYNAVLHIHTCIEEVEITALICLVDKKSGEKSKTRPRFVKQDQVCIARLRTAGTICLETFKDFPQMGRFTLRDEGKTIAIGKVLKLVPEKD
GSPT1, sequence (Q96SW2 whole entry): as the sequence (Q96SW2 whole entry) above
GSPT1, sequence (Q16531 whole entry partner): as the sequence (Q16531 whole entry partner) above

| Compound | CK1α Ymin (CK1α; six hours incubation) | DC50 (CK1α; six hours incubation) [µM] | Ymin (%) (Z-138 cells) | EC50 (Z-138 cells) [µM] | DC50 (GSPT1) [µM] | GSPT1 Ymin (GSPT1) | CK1α Ymin (CK1α; six hours) | DC50 (CK1α; six hours) [µM] |
| --- | --- | --- | --- | --- | --- | --- | --- | --- |
| O=C1CCC(N2Cc3cc(-c4nccn4-c4ccccc4)ccc3C2=O)C(=O)N1 (stereo not shown) [Example 7, 3-(1-Oxo-5-(1-phenyl-1H-imidazol-2-yl)isoindolin-2-yl)piperidine-2,6-dione] | C (C = 0-10% remaining) | < 0.025 | D (0-10% remaining) | < 0.01 | < 0.025 | E (E = >25-75% remaining) |  |  |
| Cn1c(C2CC2)nc(-c2ccc3c(c2)CN(C2CCC(=O)NC2=O)C3=O)c1-c1ccccc1 (stereo not shown) [Example 12, 3-(5-(2-cyclopropyl-1-methyl-5-phenyl-1H-imidazol-4-yl)-1-oxoisoindolin-2-yl)piperidine-2,6-dione] | C (C = 0-10% remaining) | < 0.025 | D (0-10% remaining) | < 0.01 | ≥ 0.025 | E (E = >25-75% remaining) |  |  |
| Cc1nc(-c2ccc3c(c2)CN(C2CCC(=O)NC2=O)C3=O)c(-c2ccccc2)n1C (stereo not shown) [Example 14, 3-(5-(1,2-Dimethyl-5-phenyl-1H-imidazol-4-yl)-1-oxoisoindolin-2-yl)piperidine-2,6-dione] | C (C = 0-10% remaining) | < 0.025 | D (0-10% remaining) | < 0.01 | ≥ 0.025 | E (E = >25-75% remaining) |  |  |
| Cc1c(-c2ccccc2)c(-c2ccc3c(c2)CN(C2CCC(=O)NC2=O)C3=O)nn1C (stereo not shown) [Example 17, 3-(5-(1,5-Dimethyl-4-phenyl-1H-pyrazol-3-yl)-1-oxoisoindolin-2-yl)piperidine-2,6-dione] | C (C = 0-10% remaining) | < 0.025 | D (0-10% remaining) | < 0.01 | ≥ 0.025 | E (E = >25-75% remaining) |  |  |
| Cc1nc(-c2ccc3c(c2)CN(C2CCC(=O)NC2=O)C3=O)c(-c2ccccc2)o1 (stereo not shown) [Example 19, 3-(5-(2-Methyl-5-phenyloxazol-4-yl)-1-oxoisoindolin-2-yl)piperidine-2,6-dione] | C (C = 0-10% remaining) | < 0.025 | D (0-10% remaining) | < 0.01 | ≥ 0.025 | E (E = >25-75% remaining) |  |  |
| Cn1cc(-c2ccc3c(c2)CN(C2CCC(=O)NC2=O)C3=O)nc1-c1ccccc1 (stereo not shown) [Example 25, 3-(5-(1-Methyl-2-phenyl-1H-imidazol-4-yl)-1-oxoisoindolin-2-yl)piperidine-2,6-dione] | C (C = 0-10% remaining) | < 0.025 | D (0-10% remaining) | < 0.01 | ≥ 0.025 | F (F = >75-100% remaining) |  |  |
| O=C1CCC(N2Cc3cc(-c4cn(-c5ccccc5)cn4)ccc3C2=O)C(=O)N1 (stereo not shown) [Example 32, 3-(1-Oxo-5-(1-phenyl-1H-imidazol-4-yl)isoindolin-2-yl)piperidine-2,6-dione] | D (D = >10- 25% remaining) | < 0.025 | D (0-10% remaining) | < 0.01 | < 0.025 | E (E = >25-75% remaining) |  |  |
| O=C1CCC(N2Cc3cc(-c4ccn(-c5ccccc5)n4)ccc3C2=O)C(=O)N1 (stereo not shown) [Example 34, 3-(1-Oxo-5-(1-phenyl-1H-pyrazol-3-yl)isoindolin-2-yl)piperidine-2,6-dione] | D (D = >10- 25% remaining) | < 0.025 | E (>10-25% remaining) | 0.01 to 0.1 | ≥ 0.025 | F (F = >75-100% remaining) |  |  |
| Cn1nc(-c2ccc3c(c2)CN(C2CCC(=O)NC2=O)C3=O)cc1-c1ccccc1 (stereo not shown) [Example 36, 3-(5-(1-Methyl-5-phenyl-1H-pyrazol-3-yl)-1-oxoisoindolin-2-yl) piperidine-2,6-dione] | D (D = >10- 25% remaining) | < 0.025 | E (>10-25% remaining) | 0.01 to 0.1 | ≥ 0.025 | F (F = >75-100% remaining) |  |  |
| O=C1CCC(N2Cc3cc(-c4coc(-c5ccccc5)n4)ccc3C2=O)C(=O)N1 (stereo not shown) [Example 37, 3-(1-Oxo-5-(2-phenyloxazol-4-yl)isoindolin-2-yl)piperidine-2,6-dione] | D (D = >10- 25% remaining) | < 0.025 | F (>25-50% remaining) | 0.01 to 0.1 | ≥ 0.025 | F (F = >75-100% remaining) |  |  |
| O=C1CCC(N2Cc3cc(-c4cnoc4-c4ccccc4)ccc3C2=O)C(=O)N1 (stereo not shown) [Example 39, 3-(1-Oxo-5-(5-phenylisoxazol-4-yl)isoindolin-2-yl)piperidine-2,6-dione] | E (E = >25-75% remaining) | < 0.025 | D (0-10% remaining) | 0.1 to 0.5 | ≥ 0.025 | F (F = >75-100% remaining) |  |  |
| Cn1c(-c2ccccc2)cnc1-c1ccc2c(c1)CN(C1CCC(=O)NC1=O)C2=O (stereo not shown) [Example 40, 3-(5-(1-Methyl-5-phenyl-1H-imidazol-2-yl)-1-oxoisoindolin-2-yl)piperidine-2,6-dione] | D (D = >10- 25% remaining) | < 0.025 | D (0-10% remaining) | < 0.01 | < 0.025 | D (D = >10- 25% remaining) |  |  |
| Cn1cc(-c2ccccc2)nc1-c1ccc2c(c1)CN(C1CCC(=O)NC1=O)C2=O (stereo not shown) [Example 41, 3-(5-(1-Methyl-4-phenyl-1H-imidazol-2-yl)-1-oxoisoindolin-2-yl)piperidine-2,6-dione] | D (D = >10- 25% remaining) | < 0.025 | D (0-10% remaining) | 0.01 to 0.1 | ≥ 0.025 | F (F = >75-100% remaining) |  |  |
| O=C1CCC(N2Cc3cc(-c4cc(-c5ccccc5)no4)ccc3C2=O)C(=O)N1 (stereo not shown) [Example 43, 3-(1-Oxo-5-(3-phenylisoxazol-5-yl)isoindolin-2-yl)piperidine-2,6-dione] | D (D = >10- 25% remaining) | < 0.025 | F (>25-50% remaining) | 0.1 to 0.5 | ≥ 0.025 | F (F = >75-100% remaining) |  |  |
| Cn1cc(-c2c(-c3ccc4c(c3)CN(C3CCC(=O)NC3=O)C4=O)nc(C3CC3)n2C)cn1 (stereo not shown) [Example 46, 3-(5-(2-Cyclopropyl-1-methyl-5-(1-methyl-1H-pyrazol-4-yl)-1H-imidazol-4-yl)-1-oxoisoindolin-2-yl)piperidine-2,6-dione] | C (C = 0-10% remaining) | < 0.025 | D (0-10% remaining) | < 0.01 | ≥ 0.025 | F (F = >75-100% remaining) |  |  |
| O=C1CCC(N2Cc3cc(-c4nccn4C4CCCCC4)ccc3C2=O)C(=O)N1 (stereo not shown) [Example 48, 3-(5-(1-Cyclohexyl-1H-imidazol-2-yl)-1-oxoisoindolin-2-yl)piperidine-2,6-dione] | C (C = 0-10% remaining) | < 0.025 | D (0-10% remaining) | < 0.01 | < 0.025 | D (D = >10- 25% remaining) |  |  |
| CCn1nc(-c2ccccc2)c(-c2ccc3c(c2)CN(C2CCC(=O)NC2=O)C3=O)n1 (stereo not shown) [Example 51, 3-(5-(2-Ethyl-5-phenyl-2H-1,2,3-triazol-4-yl)-1-oxoisoindolin-2-yl)piperidine-2,6-dione] | C (C = 0-10% remaining) | < 0.025 | D (0-10% remaining) | 0.01 to 0.1 | ≥ 0.025 | F (F = >75-100% remaining) |  |  |
| Cn1nc(-c2ccc3c(c2)CN(C2CCC(=O)NC2=O)C3=O)cc1-c1ccc(F)cc1 (stereo not shown) [Example 488, 3-(5-(5-(4-fluorophenyl)-1-methyl-1H-pyrazol-3-yl)-1-oxoisoindolin-2-yl)piperidine-2,6-dione] |  |  | E (>10-25% remaining) | 0.01 to 0.1 |  |  | D (D = >10- 25% remaining) | < 0.025 |
